The values that follow come from patent US20250051314A1, “SMALL MOLECULE INHIBITORS OF INTERFERON GAMMA SIGNALING” (INSTITUT CURIE, priority 2021, published 2025).

pIC50: −log10 of the molar value.

Holding throughout (format): cell-based
In data set [1] the test system is IFNγ-induced tyrosine phosphorylation of STAT1 (pSTAT1). Description: JAK/STAT signalling activation assay (pSTAT1/tSTAT1 immunoblot). To be noted: Hela cells; for inhibition of phosphorylation of STAT, dose-response in words: different concentrations; for inhibition of phosphorylation of STAT, dose-response in words / inhibition of IFNγ-induced pSTAT1 (IFNγ-signaling), result in words: 20 min pre-incubation with IFNγ; for inhibition of IFNγ-induced pSTAT1 (IFNγ-signaling), result in words: screening at 40 μM; for pIC50: Homo sapiens, 1000 U/ml IFNγ pre-incubated 20 min with compound, non-linear curve fit, n=3, read-out: IC50 pSTAT1 inhibition. The method, then:
Cell culture: Hela cells were grown at 37° C. under 5% CO2 in DMEM high glucose Glutamax (Gibco, Life Technologies) complemented with 10% FBS (v/v) (Gibco, Life Technologies) and supplemented with 5 mM pyruvate (v/v) (Gibco, Life Technologies) and 1% penicillin-streptomycin (v/v) (Gibco, Life Technologies). Primary antibodies: Mouse anti-phospho-STAT1 Tyr701 (BD Transduction Laboratories, 612132, RRID: AB_399503, 1:1000 for western blot), rabbit anti-STAT1 (Cell Signaling, 9172, RRID: AB_2198300, 1:1000 for western blot), mouse anti-alpha-tubulin (Sigma, clone B512, T5168, RRID: AB_86546, 1:5000 for western blot); rabbit anti-IFN-γ ([Abcam, EPR1108, ab133566, 1:1000 for western blot). Secondary antibodies anti-mouse-Alexa488 (Invitrogen, A21202), anti-mouse-HRP (Jackson ImmunoResearch, 715-035-151) and anti-rabbit-HRP (Jackson ImmunoResearch, […]) were used at 1:5000 for western blot.
20 mM stock solution of compounds in DMSO were prepared and stored at −20° C.
Hela cells were treated 20 min at 37° C. with mixture containing 1000 U·ml^−1 IFNγ in DMEM with 0.2% BSA preincubated for 20 min at 37° C. with DMSO (as control) for JAK/STAT stimulation. For screening compounds, 40 μM compounds were pre-incubated with 1000 U·ml^−1 of IFNγ in DMEM containing 0.2% BSA for 20 min at 37° C. before adding it to Hela cells. 10-fold 7 or 5 serial dilutions from 400 μM of compounds were made in DMEM containing 1000 U·ml^−1 of IFNγ and 0.2% BSA, and incubated for 20 min before stimulating JAK/STAT for finding IC50 towards IFNγ.
Cells were lysed in sample buffer (62.5 mM Tris/HCl, […], 2% v/v SDS, 10% glycerol v/v, 40 mM dithiothreitol, and 0.03% w/v phenol red). Samples were analysed by SDS-PAGE on 4-15% Mini-PROTEAN* TGX™ Precast Gels or on 4-15% Mini-PROTEAN′ TGX™ Stain Free Gel (Bio-Rad) and immuno-blotted with the indicated primary antibodies and horseradish peroxidase- or Alexa488-conjugated secondary antibodies. […] Acquisition and quantification were performed with the ChemiDoc MP Imaging System (Bio-Rad). Phosphorylated protein over total protein ratio was determined on the same blot using horseradish peroxidase and Alexa488 signals.
A general note: In western blotting, separated proteins are transferred to a membrane and probed.

For data set [2], the system named is formin-mediated actin assembly. Description: In cellulo actin nucleation assay (phalloidin staining, cell area). To be noted: Hela cells, 40 μM, 20 min. As for the experimental part:
Hela cells grown on coverslips were treated with DMEM containing 0.2% BSA and the compounds (40 μM) for 20 min at 37° C., washed with cold PBS (two times) and then fixed with 4% paraformaldehyde for 30 min at room temperature, quenched in 50 mM NH4Cl for 10 min and permeabilized with 0.05% saponin in 0.2% BSA in PBS for 20 min. Cells were incubated with 165 nM phalloidin for 1 h at room temperature. DAPI containing fluoromount-G was used to mount coverslips onto glass slide. Cell areas were measured with ImageJ software (NIH).

Another data set has as its system Hela cells. The data set is described as follows: Cell viability assay (CellTiter-Blue). To be noted: Hela cells treated for 24 h; for pIC50: Homo sapiens, n=3. As for the experimental part:
Cell viability assay was carried out by plating 10,000 cells/well in 96-well plates. 3-Fold 8 serial dilutions of the compounds from 3 mM were made in DMEM. HeLa cells were treated for 24 h with the compounds of different concentrations made. In case of preincubation with IFNγ, 6000 U·ml^−1 of IFNγ per concentration of compounds were used and incubated for 20 min. According to manufacturer's protocol,
CellTiter-Blue® reagent was added after 24 h treatment and cells were incubated for 3 h before recording fluorescence intensities (λex. 560/20 nm; λem. 590/10 nm) using a Perkin Elmer Wallac 1420 Victor2 Microplate Reader.
(In general: The colour change of resazurin is a common sign of viable cells or microbes.)

Consider `C#Cc1ccc(C=C2C(=O)NC(=S)N(c3cccc(Br)c3)C2=O)o1` [Compound 5a, (1-(3-bromophenyl)-5-((5-ethynylfuran-2-yl)methylene)-2-thioxodihydropyrimidine-4,6(1H,5H)-dione)], for which, in data set [1], the “inhibition of phosphorylation of STAT, dose-response in words” value (from here on “inhibition of phosphorylation of STAT”) is “dose-dependent manner in the low micromolar range”; the “inhibition of IFNγ-induced pSTAT1 (IFNγ-signaling), result in words” value (“inhibition of IFNγ-induced pSTAT1” for short) was “inhibited IFNγ-induced pSTAT1”; the negative logarithm of the IC50 (pIC50) (as a rule, the negative decadic logarithm of the IC50, by convention in mol/L) is 5.97. The “formin targeting / actin assembly (phalloidin pattern, cell area), result in words” value (“formin targeting / actin assembly” for short) in data set [2] is “deprived of formin targeting”. Besides, in the data set with Hela cells, the “cytotoxicity at effective doses” value is listed as “did not show significant cytotoxicity at effective doses” and the pIC50 was 3.48.

Turning to `C#Cc1ccc(C=C2C(=O)NC(=S)N(c3cccc(F)c3)C2=O)o1` [Compound 5b, 5-((5-ethynylfuran-2-yl)methylene)-1-(3-fluorophenyl)-2-thioxodihydropyrimidine-4,6(1H,5H)-dione], in data set [1], the “inhibition of phosphorylation of STAT” value was “dose-dependent manner in the low micromolar range” and the pIC50 was 5.98. In the data set on Hela cells, the “cytotoxicity at effective doses” value was “did not show significant cytotoxicity at effective doses” and the pIC50 is 4.02.

In the case of `C#Cc1ccc(C=C2C(=O)N(c3cccc(Br)c3)C(=S)N(c3cccc(Br)c3)C2=O)o1` [Compound 5j, 1,3-bis(3-bromophenyl)-5-((5-ethynylfuran-2-yl)methylene)-2-thioxodihydropyrimidine-4,6(1H,5H)-dione], in data set [1], the “inhibition of phosphorylation of STAT” value is recorded as “dose-dependent manner in the low micromolar range”; the “inhibition of IFNγ-induced pSTAT1” value is “biologically active compounds”; the negative-log IC50 (pIC50) was 5.33. In the data set on Hela cells, the “cytotoxicity at effective doses” value is on record as “did not show significant cytotoxicity at effective doses” and the negative logarithm of the IC50 (pIC50) was 3.51.

Consider `C#Cc1ccc(C=C2C(=O)N(c3cccc(F)c3)C(=S)N(c3cccc(F)c3)C2=O)o1` [Compound 5k, 5-((5-ethynylfuran-2-yl)methylene)-1,3-bis(3-fluorophenyl)-2-thioxodihydropyrimidine-4,6(1H,5H)-dione], for which, in data set [1], the “inhibition of phosphorylation of STAT” value is reported as “dose-dependent manner in the low micromolar range” and the negative-log IC50 (pIC50) was 5.22. In the data set with Hela cells, the “cytotoxicity at effective doses” value is on record as “did not show significant cytotoxicity at effective doses” and the negative-log IC50 (pIC50) was 4.02.

As to `C#Cc1ccc(C=C2C(=O)NC(=O)N(c3cccc(Br)c3)C2=O)o1` [Compound 5l, 1-(3-bromophenyl)-5-((5-ethynylfuran-2-yl)methylene)pyrimidine-2,4,6(1H,3H,5H)-trione], in data set [1], the “inhibition of IFNγ-induced pSTAT1” value is “retained its activity against both IFNγ-signaling and formin”. Further, the “formin targeting / actin assembly” value in data set [2] was “retained its activity against both IFNγ-signaling and formin”.

Take `Cc1ccc(C=C2C(=O)NC(=S)N(c3cccc(F)c3)C2=O)o1` [Compound 6a, 1-(3-fluorophenyl)-5-((5-methylfuran-2-yl)methylene)-2-thioxodihydropyrimidine-4,6(1H,5H)-dione]: in data set [2], the “formin targeting / actin assembly” value is reported as “inhibited either IFNγ-signaling or formins”.

As to `O=C1NC(=S)N(c2cccc(F)c2)C(=O)C1=Cc1ccc(Cl)o1` [Compound 6b, 5-((5-chlorofuran-2-yl)methylene)-1-(3-fluorophenyl)-2-thioxodihydropyrimidine-4,6(1H,5H)-dione], the “inhibition of IFNγ-induced pSTAT1” value in data set [1] is reported as “inhibited either IFNγ-signaling or formins”.

With `O=C1NC(=S)N(c2cccc(F)c2)C(=O)C1=Cc1ccc(Br)o1` [Compound 6i, 5-((5-bromofuran-2-yl)methylene)-1-(3-fluorophenyl)-2-thioxodihydropyrimidine-4,6(1H,5H)-dione], in data set [2], the “formin targeting / actin assembly” value is given as “inhibited either IFNγ-signaling or formins”.

`O=C1NC(=O)N(c2cccc(Br)c2)C(=O)C1=Cc1ccco1` [Compound 6l, 1-(3-bromophenyl)-5-(furan-2-ylmethylene)pyrimidine-2,4,6(1H,3H,5H)-trione]: the “inhibition of IFNγ-induced pSTAT1” value in data set [1] is reported as “did not show IFNγ-signaling inhibitory activity”.

As for `O=C1NC(=S)N(c2cccc(Br)c2)C(=O)C1=Cc1ccco1` [SMIFH2, 1-(3-Bromophenyl)-5-(2-furylmethylene)-2-thioxo-hexahydropyrimidine-4,6-dione, reference compound], the “inhibition of IFNγ-induced pSTAT1” value in data set [1] is “capable of inhibiting IFNγ signaling”.
